Measurements from patent US20070270418A1, “Inhibitors of P38 and Methods of Using the Same” (priority 2003, published 2007).

Tests used:
Assay in all cases: Broad selectivity panel, 32P incorporation
Format in all cases: biochemical
PKA = molecular target: T1, PKA (Homo sapiens, UniProt P17612); conditions: 40 μM ATP, read-out: Percent inhibition PKA; for inhibition at 0.1 µM: 0.1 μM compound; for inhibition at 1 µM: 1 μM compound
T1 construct: purchased Upstate (Charlottesville, Va.)
Experimental: (§1) Various compounds of the present invention are screened against a panel of 24 additional kinases (Upstate, Charlottesville, Va.). Compounds are tested 0.1 μM and 1 μM in reactions containing 40 μM ATP. Incorporation of radiolabeled phosphate (^32P) into each kinase substrate is measured in the presence and absence of test compound. Results are reported as the percent decrease in the amount of ^32P incorporated into the substrate in the presence of compound, compared to buffer control.

MKK6 = molecular target: T2, MKK6 (Homo sapiens, UniProt P52564); conditions: 40 μM ATP, read-out: Percent inhibition MKK6; for inhibition at 0.1 µM: 0.1 μM compound; for inhibition at 1 µM: 1 μM compound
T2 construct: purchased Upstate (Charlottesville, Va.)
T2 sequence (P52564 1-334): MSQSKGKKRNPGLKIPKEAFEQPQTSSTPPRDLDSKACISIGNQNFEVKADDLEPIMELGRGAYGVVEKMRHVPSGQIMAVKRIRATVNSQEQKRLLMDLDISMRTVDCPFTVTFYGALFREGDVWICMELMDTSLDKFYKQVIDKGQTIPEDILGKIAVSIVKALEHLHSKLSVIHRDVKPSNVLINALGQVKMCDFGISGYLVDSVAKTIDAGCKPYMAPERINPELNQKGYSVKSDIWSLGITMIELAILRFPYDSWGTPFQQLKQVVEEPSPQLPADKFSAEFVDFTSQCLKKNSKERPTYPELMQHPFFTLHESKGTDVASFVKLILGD
Experimental: as §1

PKBβ = molecular target: T3, PKBβ (Homo sapiens, UniProt P31751); conditions: 40 μM ATP, read-out: Percent inhibition PKBβ; for inhibition at 0.1 µM: 0.1 μM compound; for inhibition at 1 µM: 1 μM compound
T3 construct: purchased Upstate (Charlottesville, Va.)
Experimental: as §1

FGFR3 = molecular target: T4, FGFR3 (Homo sapiens, UniProt P22607); conditions: 40 μM ATP, read-out: Percent inhibition FGFR3; for inhibition at 0.1 µM: 0.1 μM compound; for inhibition at 1 µM: 1 μM compound
T4 construct: purchased Upstate (Charlottesville, Va.)
Experimental: as §1

p70S6K = conditions: 40 μM ATP
Experimental: as §1

JNK1α1 = molecular target: T5, JNK1α1 (Homo sapiens, UniProt P45983); conditions: 40 μM ATP, read-out: Percent inhibition JNK1α1; for inhibition at 0.1 µM: 0.1 μM compound; for inhibition at 1 µM: 1 μM compound
T5 construct: purchased Upstate (Charlottesville, Va.)
Experimental: as §1

MAPK1 = molecular target: T6, MAPK1 (Homo sapiens, UniProt P27361); conditions: 40 μM ATP, read-out: Percent inhibition MAPK1; for inhibition at 0.1 µM: 0.1 μM compound; for inhibition at 1 µM: 1 μM compound
T6 construct: purchased Upstate (Charlottesville, Va.)
Experimental: as §1

ZAP-70 = molecular target: T7, ZAP-70 (Homo sapiens, UniProt P43403); conditions: 40 μM ATP, read-out: Percent inhibition ZAP-70; for inhibition at 0.1 µM: 0.1 μM compound; for inhibition at 1 µM: 1 μM compound
T7 construct: purchased Upstate (Charlottesville, Va.)
T7 sequence (P43403 1-619): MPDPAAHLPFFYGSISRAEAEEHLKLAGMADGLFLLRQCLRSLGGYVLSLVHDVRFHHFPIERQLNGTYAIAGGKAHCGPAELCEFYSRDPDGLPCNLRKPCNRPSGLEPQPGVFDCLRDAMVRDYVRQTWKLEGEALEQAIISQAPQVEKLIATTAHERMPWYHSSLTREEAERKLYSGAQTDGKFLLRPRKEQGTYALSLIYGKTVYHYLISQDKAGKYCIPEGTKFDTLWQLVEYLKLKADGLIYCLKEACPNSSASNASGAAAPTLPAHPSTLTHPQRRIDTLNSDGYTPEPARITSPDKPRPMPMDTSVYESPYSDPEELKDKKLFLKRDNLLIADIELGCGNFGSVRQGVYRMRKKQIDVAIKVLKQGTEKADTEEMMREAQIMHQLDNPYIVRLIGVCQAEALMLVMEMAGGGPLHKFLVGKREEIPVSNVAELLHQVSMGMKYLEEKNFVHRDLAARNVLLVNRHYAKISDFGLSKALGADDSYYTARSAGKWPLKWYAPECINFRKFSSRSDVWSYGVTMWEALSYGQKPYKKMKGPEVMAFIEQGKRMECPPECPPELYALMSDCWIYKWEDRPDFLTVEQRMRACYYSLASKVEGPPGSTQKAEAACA
Experimental: as §1

Lyn = molecular target: T8, Lyn (Homo sapiens, UniProt P07948); conditions: 40 μM ATP, read-out: Percent inhibition Lyn; for inhibition at 0.1 µM: 0.1 μM compound; for inhibition at 1 µM: 1 μM compound
T8 construct: purchased Upstate (Charlottesville, Va.)
Experimental: as §1

CDK2/cyclinA = molecular target: T9, CDK2/cyclinA (Homo sapiens, UniProt P24941); conditions: 40 μM ATP, read-out: Percent inhibition CDK2/cyclinA; for inhibition at 0.1 µM: 0.1 μM compound; for inhibition at 1 µM: 1 μM compound
T9 construct: purchased Upstate (Charlottesville, Va.)
Experimental: as §1

CaMKIV = molecular target: T10, CaMKIV (Homo sapiens, UniProt Q16566); conditions: 40 μM ATP, read-out: Percent inhibition CaMKIV; for inhibition at 0.1 µM: 0.1 μM compound; for inhibition at 1 µM: 1 μM compound
T10 construct: purchased Upstate (Charlottesville, Va.)
T10 sequence (Q16566 1-473): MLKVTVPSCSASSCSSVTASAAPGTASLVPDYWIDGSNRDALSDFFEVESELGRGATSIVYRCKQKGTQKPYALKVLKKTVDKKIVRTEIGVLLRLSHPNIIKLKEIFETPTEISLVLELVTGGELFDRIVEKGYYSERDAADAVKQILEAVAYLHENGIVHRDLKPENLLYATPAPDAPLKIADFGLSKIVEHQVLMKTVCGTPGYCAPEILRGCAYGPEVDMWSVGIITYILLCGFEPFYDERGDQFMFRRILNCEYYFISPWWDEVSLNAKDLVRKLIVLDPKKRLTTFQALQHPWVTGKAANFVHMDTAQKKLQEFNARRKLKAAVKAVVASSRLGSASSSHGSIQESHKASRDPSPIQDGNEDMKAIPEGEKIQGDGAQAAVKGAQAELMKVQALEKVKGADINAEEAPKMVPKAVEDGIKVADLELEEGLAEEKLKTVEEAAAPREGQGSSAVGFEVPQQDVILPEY
Experimental: as §1

PDGFR α = molecular target: T11, PDGFR α (Homo sapiens, UniProt P16234); conditions: 40 μM ATP, read-out: Percent inhibition PDGFR α; for inhibition at 0.1 µM: 0.1 μM compound; for inhibition at 1 µM: 1 μM compound
T11 construct: purchased Upstate (Charlottesville, Va.)
Experimental: as §1

c-RAF = molecular target: T12, c-RAF (Homo sapiens, UniProt P04049); conditions: 40 μM ATP, read-out: Percent inhibition c-RAF; for inhibition at 0.1 µM: 0.1 μM compound; for inhibition at 1 µM: 1 μM compound
T12 construct: purchased Upstate (Charlottesville, Va.)
Experimental: as §1

T3 sequence (P31751 whole entry, species assumed): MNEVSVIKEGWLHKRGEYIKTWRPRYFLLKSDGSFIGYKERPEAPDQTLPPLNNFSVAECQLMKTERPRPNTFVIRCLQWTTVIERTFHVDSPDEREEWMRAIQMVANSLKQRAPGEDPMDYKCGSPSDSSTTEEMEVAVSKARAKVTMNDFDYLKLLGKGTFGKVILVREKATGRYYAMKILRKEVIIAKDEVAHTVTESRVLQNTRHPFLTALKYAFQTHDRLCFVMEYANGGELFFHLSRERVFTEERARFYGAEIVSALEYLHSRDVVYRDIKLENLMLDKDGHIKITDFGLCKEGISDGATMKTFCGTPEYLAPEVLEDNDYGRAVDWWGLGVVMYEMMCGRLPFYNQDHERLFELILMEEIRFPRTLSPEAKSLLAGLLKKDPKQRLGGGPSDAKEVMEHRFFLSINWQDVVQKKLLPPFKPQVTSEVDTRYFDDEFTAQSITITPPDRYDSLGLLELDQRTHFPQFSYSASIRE
T11 sequence (P16234 24-1089, species assumed): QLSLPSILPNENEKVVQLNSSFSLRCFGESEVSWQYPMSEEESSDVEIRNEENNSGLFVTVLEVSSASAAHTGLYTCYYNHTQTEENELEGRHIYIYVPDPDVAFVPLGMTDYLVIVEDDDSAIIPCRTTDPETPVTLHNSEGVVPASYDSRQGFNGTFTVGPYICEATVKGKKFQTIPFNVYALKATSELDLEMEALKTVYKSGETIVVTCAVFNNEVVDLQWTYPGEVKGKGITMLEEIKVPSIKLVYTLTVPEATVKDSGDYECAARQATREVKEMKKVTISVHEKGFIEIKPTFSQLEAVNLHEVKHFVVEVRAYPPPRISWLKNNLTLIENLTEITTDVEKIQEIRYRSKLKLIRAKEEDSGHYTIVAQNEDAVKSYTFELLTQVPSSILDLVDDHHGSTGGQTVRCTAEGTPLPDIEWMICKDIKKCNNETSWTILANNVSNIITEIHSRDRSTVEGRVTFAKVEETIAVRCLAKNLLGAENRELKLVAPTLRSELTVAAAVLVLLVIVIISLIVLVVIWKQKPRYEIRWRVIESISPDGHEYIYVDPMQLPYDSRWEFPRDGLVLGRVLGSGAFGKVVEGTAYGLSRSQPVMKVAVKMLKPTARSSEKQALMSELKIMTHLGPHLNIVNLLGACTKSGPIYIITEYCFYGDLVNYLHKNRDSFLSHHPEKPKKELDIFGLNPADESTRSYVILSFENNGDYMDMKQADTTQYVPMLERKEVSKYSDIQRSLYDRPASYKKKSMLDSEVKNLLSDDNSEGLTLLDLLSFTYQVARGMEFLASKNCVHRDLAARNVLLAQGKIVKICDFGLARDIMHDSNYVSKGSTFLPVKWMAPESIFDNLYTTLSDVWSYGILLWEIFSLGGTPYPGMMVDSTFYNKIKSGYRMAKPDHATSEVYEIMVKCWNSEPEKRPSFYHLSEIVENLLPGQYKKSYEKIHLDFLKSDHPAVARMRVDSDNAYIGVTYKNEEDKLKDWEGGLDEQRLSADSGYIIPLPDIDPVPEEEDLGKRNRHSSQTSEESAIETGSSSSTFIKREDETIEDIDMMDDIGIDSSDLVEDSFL
T6 sequence (P27361 whole entry): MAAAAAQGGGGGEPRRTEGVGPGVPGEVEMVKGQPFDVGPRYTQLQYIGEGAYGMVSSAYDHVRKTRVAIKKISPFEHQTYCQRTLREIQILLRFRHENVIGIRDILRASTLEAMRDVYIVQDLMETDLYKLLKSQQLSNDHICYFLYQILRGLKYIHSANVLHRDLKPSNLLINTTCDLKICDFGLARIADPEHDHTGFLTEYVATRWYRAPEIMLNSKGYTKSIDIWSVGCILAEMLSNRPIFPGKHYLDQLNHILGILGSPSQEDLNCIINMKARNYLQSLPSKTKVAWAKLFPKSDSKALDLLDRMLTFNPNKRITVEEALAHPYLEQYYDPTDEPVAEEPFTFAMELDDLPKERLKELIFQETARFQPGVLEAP
T4 sequence (P22607 23-806, species assumed): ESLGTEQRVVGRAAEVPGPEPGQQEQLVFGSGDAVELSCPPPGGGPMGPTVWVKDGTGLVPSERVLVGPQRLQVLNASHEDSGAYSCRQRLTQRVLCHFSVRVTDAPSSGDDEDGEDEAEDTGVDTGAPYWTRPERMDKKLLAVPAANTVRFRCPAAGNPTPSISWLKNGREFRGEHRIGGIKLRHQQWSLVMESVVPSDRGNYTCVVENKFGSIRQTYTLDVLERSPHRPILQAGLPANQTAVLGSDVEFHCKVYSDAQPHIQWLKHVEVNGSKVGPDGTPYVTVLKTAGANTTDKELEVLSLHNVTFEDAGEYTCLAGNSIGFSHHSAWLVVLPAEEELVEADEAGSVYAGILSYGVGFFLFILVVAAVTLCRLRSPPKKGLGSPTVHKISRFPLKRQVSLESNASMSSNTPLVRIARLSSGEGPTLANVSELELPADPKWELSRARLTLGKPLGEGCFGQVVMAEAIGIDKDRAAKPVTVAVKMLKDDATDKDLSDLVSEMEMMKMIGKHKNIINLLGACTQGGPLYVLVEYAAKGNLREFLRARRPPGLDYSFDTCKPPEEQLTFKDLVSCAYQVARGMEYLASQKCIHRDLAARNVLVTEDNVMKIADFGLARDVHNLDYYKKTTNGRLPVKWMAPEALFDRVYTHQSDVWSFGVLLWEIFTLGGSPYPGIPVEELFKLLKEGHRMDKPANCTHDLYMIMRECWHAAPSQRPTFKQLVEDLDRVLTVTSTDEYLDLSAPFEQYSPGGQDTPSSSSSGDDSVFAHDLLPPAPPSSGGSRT
T12 sequence (P04049 whole entry, species assumed): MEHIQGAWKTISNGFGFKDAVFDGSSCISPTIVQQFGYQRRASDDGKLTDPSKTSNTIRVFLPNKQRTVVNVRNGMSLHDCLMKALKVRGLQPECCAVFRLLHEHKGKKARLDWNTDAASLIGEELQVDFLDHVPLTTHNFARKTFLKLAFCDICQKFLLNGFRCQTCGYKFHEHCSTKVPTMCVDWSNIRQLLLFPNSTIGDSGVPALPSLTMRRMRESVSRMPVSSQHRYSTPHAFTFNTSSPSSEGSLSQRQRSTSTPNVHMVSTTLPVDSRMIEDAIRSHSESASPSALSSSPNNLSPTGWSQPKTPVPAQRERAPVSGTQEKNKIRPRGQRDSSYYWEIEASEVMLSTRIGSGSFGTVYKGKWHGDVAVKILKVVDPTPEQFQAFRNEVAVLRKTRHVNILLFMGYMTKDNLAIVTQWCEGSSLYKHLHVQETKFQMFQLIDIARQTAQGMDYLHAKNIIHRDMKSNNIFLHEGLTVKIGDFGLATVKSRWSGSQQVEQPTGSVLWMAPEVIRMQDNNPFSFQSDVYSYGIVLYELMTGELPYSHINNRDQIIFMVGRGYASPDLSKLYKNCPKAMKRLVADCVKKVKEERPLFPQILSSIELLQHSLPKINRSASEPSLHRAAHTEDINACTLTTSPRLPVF
T5 sequence (P45983 1-384 isoform P45983-2, species assumed): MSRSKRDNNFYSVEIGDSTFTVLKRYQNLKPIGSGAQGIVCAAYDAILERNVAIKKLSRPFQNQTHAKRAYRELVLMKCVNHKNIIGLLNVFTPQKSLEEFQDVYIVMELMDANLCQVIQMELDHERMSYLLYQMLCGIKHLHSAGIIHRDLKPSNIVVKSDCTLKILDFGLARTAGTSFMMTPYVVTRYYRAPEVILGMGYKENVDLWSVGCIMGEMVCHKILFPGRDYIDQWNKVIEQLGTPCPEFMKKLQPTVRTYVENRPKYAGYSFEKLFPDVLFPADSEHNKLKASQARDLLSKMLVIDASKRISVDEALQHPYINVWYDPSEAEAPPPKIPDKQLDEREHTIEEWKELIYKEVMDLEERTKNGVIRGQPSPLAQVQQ
T8 sequence (P07948 whole entry, species assumed): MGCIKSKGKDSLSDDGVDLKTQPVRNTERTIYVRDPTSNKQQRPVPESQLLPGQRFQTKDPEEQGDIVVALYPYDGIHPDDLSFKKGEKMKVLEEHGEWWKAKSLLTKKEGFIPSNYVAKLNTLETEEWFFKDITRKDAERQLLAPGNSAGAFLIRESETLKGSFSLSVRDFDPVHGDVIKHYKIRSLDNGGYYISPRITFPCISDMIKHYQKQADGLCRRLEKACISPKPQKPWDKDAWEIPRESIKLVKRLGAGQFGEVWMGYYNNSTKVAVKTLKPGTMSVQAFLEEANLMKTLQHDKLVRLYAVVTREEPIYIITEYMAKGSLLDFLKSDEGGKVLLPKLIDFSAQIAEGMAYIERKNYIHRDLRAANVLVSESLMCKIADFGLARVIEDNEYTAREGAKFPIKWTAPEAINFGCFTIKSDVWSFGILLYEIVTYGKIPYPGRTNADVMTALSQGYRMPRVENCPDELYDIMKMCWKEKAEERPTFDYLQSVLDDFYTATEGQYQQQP

inhibition at 0.1 µM (PKA) [%]	inhibition at 1 µM (PKA) [%]	inhibition at 0.1 µM (MKK6) [%]	inhibition at 1 µM (MKK6) [%]	inhibition at 0.1 µM (PKBβ) [%]	inhibition at 1 µM (PKBβ) [%]	inhibition at 0.1 µM (FGFR3) [%]	inhibition at 1 µM (FGFR3) [%]	inhibition at 0.1 µM (JNK1α1) [%]	inhibition at 1 µM (JNK1α1) [%]	inhibition at 0.1 µM (MAPK1) [%]	inhibition at 1 µM (MAPK1) [%]	inhibition at 0.1 µM (ZAP-70) [%]	inhibition at 1 µM (ZAP-70) [%]	inhibition at 0.1 µM (Lyn) [%]	inhibition at 1 µM (Lyn) [%]	inhibition at 0.1 µM (CDK2/cyclinA) [%]	inhibition at 1 µM (CDK2/cyclinA) [%]	Structure (SMILES)	Percent inhibition p70S6K (p70S6K; 0.1 μM compound)	Percent inhibition p70S6K (p70S6K; 1 μM compound)	further results
-6	10	26	83	-3	41	19	32	-13	61	25	63	-53	18	-26	-29	1	20	CC(=O)N1CCC(Nc2nccc(-c3c(-c4ccc(F)cc4)nc4occn34)n2)CC1 [CCLXXVIII]	−11	4	inhibition at 0.1 µM (CaMKIV): 8%; inhibition at 1 µM (CaMKIV): 21%; inhibition at 0.1 µM (PDGFR α): 23%; inhibition at 1 µM (PDGFR α): 17%; inhibition at 0.1 µM (c-RAF): 26%; inhibition at 1 µM (c-RAF): 66%
0	11	0	62	-18	13	-1	13	-26	18	20	45	-2	9	-24	27	3	19	Fc1ccc(-c2nc3occn3c2-c2ccnc(NC3CCNCC3)n2)cc1 [CCLXXX]	7	18	inhibition at 0.1 µM (CaMKIV): -10%; inhibition at 1 µM (CaMKIV): 7%; inhibition at 0.1 µM (PDGFR α): 1%; inhibition at 1 µM (PDGFR α): 8%; inhibition at 0.1 µM (c-RAF): 21%; inhibition at 1 µM (c-RAF): 75%
1	-8	1	75	-4	-19	9	-2	-1	-18	7	15	13	-9	2	-12	-1	-1	CN(C)CC(C)(C)CNc1nccc(-c2c(-c3ccc(F)cc3)nc3occn23)n1 [CXIX]	0	−5	inhibition at 0.1 µM (CaMKIV): 13%; inhibition at 1 µM (CaMKIV): 7%; inhibition at 0.1 µM (PDGFR α): 26%; inhibition at 1 µM (PDGFR α): 10%; inhibition at 0.1 µM (c-RAF): -3%; inhibition at 1 µM (c-RAF): 3%

Continued, compound first:

Structure (SMILES)	inhibition at 0.1 µM (PKA) [%]	inhibition at 1 µM (PKA) [%]	inhibition at 0.1 µM (MKK6) [%]	inhibition at 1 µM (MKK6) [%]	inhibition at 0.1 µM (PKBβ) [%]	inhibition at 1 µM (PKBβ) [%]	inhibition at 0.1 µM (FGFR3) [%]	inhibition at 1 µM (FGFR3) [%]	inhibition at 0.1 µM (JNK1α1) [%]	inhibition at 1 µM (JNK1α1) [%]	inhibition at 0.1 µM (MAPK1) [%]	inhibition at 1 µM (MAPK1) [%]	inhibition at 0.1 µM (ZAP-70) [%]	inhibition at 1 µM (ZAP-70) [%]	inhibition at 0.1 µM (Lyn) [%]	inhibition at 1 µM (Lyn) [%]	inhibition at 0.1 µM (CDK2/cyclinA) [%]	inhibition at 1 µM (CDK2/cyclinA) [%]	Percent inhibition p70S6K (p70S6K; 0.1 μM compound)	Percent inhibition p70S6K (p70S6K; 1 μM compound)	further results
CS(=O)(=O)N1CCC(Nc2nccc(-c3c(-c4ccc(F)cc4)nc4occn34)n2)CC1 [CCLXXIX]	6	-2	8	90	0	-30	9	10	37	86	29	79	13	-1	-7	-13	24	65	9	10	inhibition at 0.1 µM (CaMKIV): 18%; inhibition at 1 µM (CaMKIV): -2%; inhibition at 0.1 µM (PDGFR α): 0%; inhibition at 1 µM (PDGFR α): -9%; inhibition at 0.1 µM (c-RAF): 32%; inhibition at 1 µM (c-RAF): 83%
CN1[C@@H]2CC[C@H]1C[C@@H](Nc1nccc(-c3c(-c4ccc(F)cc4)nc4occn34)n1)C2 [CCLXXXI]	-11	-2	19	76	-12	13	-27	26	-13	6	25	49	12	30	-6	4	-2	5	−16	−10	inhibition at 0.1 µM (CaMKIV): 12%; inhibition at 1 µM (CaMKIV): 33%; inhibition at 0.1 µM (PDGFR α): 11%; inhibition at 1 µM (PDGFR α): 21%; inhibition at 0.1 µM (c-RAF): -4%; inhibition at 1 µM (c-RAF): 8%
